Source: PubChem BioAssay AID2738 (Broad Institute, 2010)
pIC50: −log10 of the molar value. The source made the active and inactive calls.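 The calls were made as follows: active = IC50 at or below ten times the top tested concentration; inconclusive = flat fit at 30 to 70% inhibition, or invalid poor fit; inactive = IC50 beyond ten times the top tested dose.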

These compounds were tested against POS-1 (Caenorhabditis elegans) binding to mex-3 RNA (assay: inhibitors of POS-1/mex-3 RNA binding, dose response, biochemical, fluorescence polarization, up to 135 µM (AID 2738)). Details: POS-1-MBP / FITC mex-3 RNA.
For `CCN(CC)c1ccc(/C=C2\C(=O)NC(=S)N(C)C2=O)o1`, the IC50 was > 135 µM (inactive).
`CC1=C(C(=O)OCc2ccccc2)C(c2ccccc2[N+](=O)[O-])NC(=O)N1C` (stereo not given) was tested, and the pIC50 was 4.59.
With `Oc1ccc(CCNc2c3ccccc3nc3ccccc23)cc1O` the IC50 was > 135 µM (inactive).
Compound `CCOC(=O)c1cc(CC)sc1/N=C/c1c(O)[nH]c(=S)[nH]c1=O` has a pIC50 of 4.34.
With `CCc1ccccc1N1C(=O)/C(=C\c2ccc(N3CCN(C)CC3)o2)C(=O)NC1=S` the IC50 was > 135 µM (inactive).
`O=C(NNC(=O)c1ccccc1[N+](=O)[O-])c1csc(N2CCOCC2)n1` gave a pIC50 of 3.92.
For `N=c1c(C(=O)NC2CCCCC2)cc2c(=O)n3ccccc3nc2n1Cc1cccnc1`, the IC50 was > 350 µM (inactive).
`ON=C1/C(=N\O)CC2(C/C1=N/O)OCCO2` was tested, and the IC50 was > 135 µM (inactive).
`Cc1ncc(CO)c(/C=N/NC(=O)c2cc(Br)ccc2O)c1O` was tested, and the pIC50 was 4.29.
For `NC(CO)C(=O)NNCc1ccc(O)c(O)c1O` (stereo not given), the IC50 was > 135 µM (inactive).
In the case of `COc1ccc(-c2cn[nH]c2-c2ccc(OCC(=O)NN)cc2O)cc1OC`, the IC50 was > 135 µM (inactive).
Compound `CCCCN(C)C(=O)CCC(=O)NNc1nc2ccccc2c2nc(C)nn12` has a pIC50 of 4.21.
In the case of `Cc1nc2ccccc2c(=O)n1/N=C/c1ccc(O)c(O)c1O`, the pIC50 was 4.77.
With `COCCCNC(=O)CCC(=O)NNc1nc2ccccc2c2nc(C)nn12` the pIC50 was 5.07.
Compound `CCN(CC)CCCNC(=O)CCC(=O)NNc1nc2ccccc2c2nc(C)nn12` has a pIC50 of 5.66.
For `Cc1ccc(N2C(=O)NC(=O)/C(=C\c3cc(C)n(-c4ccc(C(=O)O)cc4)c3C)C2=O)cc1`, the IC50 was > 135 µM (inactive).
In the case of `CCN(CC)c1ccc(/C=C2\C(=O)NC(=S)N(c3ccc(OC)cc3OC)C2=O)o1`, the IC50 was > 135 µM (inactive).
In the case of `O=CN/N=C/c1c(O)ccc2ccccc12`, the pIC50 was 4.66.
`O=c1c(O)cccc2cc(O)c(O)c(O)c12` gave a pIC50 of 4.92.
`Cn1ncc2c(NNC(=O)Cc3ccccc3)ncnc21` showed a pIC50 of 3.90.
